Reference: article PMC11940309, “Endocrine-Disrupting Activities of Flavones on Steroid Receptors: Structural Requirements and Synthesis of Novel Flavone with Improved Estrogenic Activity” (Biomedicines, 2025)

Legend:
human AR = target: T1, human AR (Homo sapiens, UniProt P10275); assay: AR-mediated induction of PSA-luciferase reporter by R1881 in HeLa13 cells; format: cell-based; details: R1881 1.0 nM, read-out: % Inhibition of AR-Mediated Gene Induction
T1 construct: expressed in transfected cells; host or cells: HeLa13 (HeLa 13)
T1 sequence (P10275 1-920): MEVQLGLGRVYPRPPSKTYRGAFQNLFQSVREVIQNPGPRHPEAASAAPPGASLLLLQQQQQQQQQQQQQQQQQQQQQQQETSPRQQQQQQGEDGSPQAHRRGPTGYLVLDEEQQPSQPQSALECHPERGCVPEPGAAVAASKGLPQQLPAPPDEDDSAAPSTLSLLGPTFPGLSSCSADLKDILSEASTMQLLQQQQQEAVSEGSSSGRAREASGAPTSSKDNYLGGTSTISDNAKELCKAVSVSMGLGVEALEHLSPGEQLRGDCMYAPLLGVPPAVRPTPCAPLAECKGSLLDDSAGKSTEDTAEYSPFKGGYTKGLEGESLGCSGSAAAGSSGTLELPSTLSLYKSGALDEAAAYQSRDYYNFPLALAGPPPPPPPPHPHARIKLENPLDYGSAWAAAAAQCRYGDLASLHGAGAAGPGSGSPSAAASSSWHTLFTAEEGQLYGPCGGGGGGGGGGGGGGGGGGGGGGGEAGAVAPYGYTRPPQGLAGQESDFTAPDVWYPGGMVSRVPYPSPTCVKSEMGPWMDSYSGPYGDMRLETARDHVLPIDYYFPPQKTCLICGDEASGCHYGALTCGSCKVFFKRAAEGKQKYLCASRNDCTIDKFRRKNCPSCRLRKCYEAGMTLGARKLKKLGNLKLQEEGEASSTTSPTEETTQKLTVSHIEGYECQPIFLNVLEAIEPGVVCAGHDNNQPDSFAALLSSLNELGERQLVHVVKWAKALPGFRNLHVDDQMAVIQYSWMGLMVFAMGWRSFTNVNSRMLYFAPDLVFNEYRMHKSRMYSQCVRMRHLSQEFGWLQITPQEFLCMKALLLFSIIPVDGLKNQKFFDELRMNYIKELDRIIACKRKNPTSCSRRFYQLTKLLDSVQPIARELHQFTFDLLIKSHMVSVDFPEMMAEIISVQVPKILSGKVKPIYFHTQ
From the text: (§1) The engineered T47D breast cancer cell lines employed for the assessment of flavonoid activity on glucocorticoid receptor (GR) and progesterone receptor (PR) signaling permitted the facile quantitation transcription of both an endogenous gene and a stably integrated reporter gene. […] The T47D K5pLuc cell line responds to progestins via induction of a stably integrated cytokeratin 5-luciferase reporter gene. […] For assessment of the effect of the test compounds on androgen receptor (AR) signaling, we used the HeLa13 cell line engineered to stably express human AR and a PSA-luciferase reporter gene containing a 4× multimerized PSA upstream enhancer ARE1 linked to the E4 TATA box and luciferase gene.
Experiments testing the effect of flavonoid on androgen receptor-mediated transcription employed HeLa 13 cells maintained in MEM medium supplemented with 10% FBS, 0.5 mg/mL G418, 0.05 mg/mL Hygromycin B, […], and streptomycin (100 μg/mL). For reporter gene experiments, cells were replated at a 1:5 dilution in MEM medium with 5% charcoal-stripped FBS and the antibiotics mentioned above. The medium was changed the next day. After 48 h, the cells were washed with PBSE, detached with phenol red-free trypsin, pelleted, resuspended and plated in 96 well plates as above. Hormone and flavonoid treatments were performed as described above with the HeLa 13 medium and charcoal-stripped FBS. When treated with hormone, the synthetic androgen, R1881, was used at 1.0 nM. Hormone treatment was for 20 h at which time cells were harvested for assay of luciferase.
(§2) For all cell lines, cell harvesting and the luminescence assay for alkaline phosphatase and/or luciferase were performed as previously described in detail. Each condition was performed in quadruplicate. […] Percent inhibition is 100 minus the percent induction.

estrogen receptor (ER) [1] = assay: ER-mediated luciferase reporter induction in T47D KBluc cells; format: cell-based, human; details: for % ER Induction: relative to 1nM estradiol
Protocol: Experiments testing the effect of flavonoids on estrogen receptor-mediated transcription employed T47D KBluc cells. These cells were maintained in RPMI medium with 10% FBS, penicillin (100 U/mL), and streptomycin (100 μg/mL). For reporter gene experiments, cells were detached as above and replated at 50% confluency in phenol red-free RPMI media with 10% charcoal-stripped FBS and antibiotics (day one). All subsequent steps used phenol red-free medium and trypsin. On day three, the medium was replaced with fresh medium. On day five, cells were washed with PBSE, detached, resuspended, diluted, and replated in the phenol red-free RPMI with charcoal-stripped serum (50,000 cells per well as above).
as §2

estrogen receptor (ER) [2] = tested on: estrogen receptor (ER); set-up: method as in PMID 11925457; details: previous report; cited from earlier work
[3] = target: T2, progesterone receptor (PR) (Homo sapiens, UniProt P06401); assay: PR-mediated induction of transcription by R5020 in T47D K5pLuc cells (luciferase reporter and endogenous alkaline phosphatase); format: cell-based; details: T47D, 8 µM, R5020 1.0 nM
T2 sequence (P06401 679-933 limits assumed): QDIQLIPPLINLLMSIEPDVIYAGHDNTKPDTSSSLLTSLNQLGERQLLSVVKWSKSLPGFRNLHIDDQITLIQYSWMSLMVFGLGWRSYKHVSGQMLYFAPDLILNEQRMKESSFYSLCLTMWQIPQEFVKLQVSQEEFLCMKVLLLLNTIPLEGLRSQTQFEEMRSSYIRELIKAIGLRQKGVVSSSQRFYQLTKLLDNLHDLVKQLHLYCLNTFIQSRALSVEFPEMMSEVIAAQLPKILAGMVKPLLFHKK
From the text: as §1
Experiments testing the effect of flavonoids on progesterone receptor-mediated transcription employed T47D K5pluc cells. The protocol was the same as that for T47D (A1-2) cells except the medium was Dulbecco’s Modified Eagle’s Medium supplemented with 10% FBS, insulin (10 nM), puromycin 200 ng/mL, nonessential amino acids, penicillin (100 U/mL), and streptomycin (100 μg/mL). When treated with hormone, the synthetic progestin, R5020, was used at 1.0 nM. Hormone treatment was for 20 h at which time cells were harvested for assay of alkaline phosphatase and luciferase.
as §2

| Compound | inhibition at 1 µM (human AR) [%] | inhibition at 4 µM (human AR) [%] | % ER Induction (estrogen receptor (ER) [1]; 1 µM) [%] | % ER Induction (estrogen receptor (ER) [1]; 4 µM) [%] | EC50 lower than that of 6,4′-dihydroxyflavone (estrogen receptor (ER) [1]; comparison at lower concentrations) | affinity for ER greater than that of 6,4′-dihydroxyflavone (estrogen receptor (ER) [2]) [fold] | inhibition at 8 µM ([3]; AP (alkaline phosphatase)) [%] | inhibition at 8 µM ([3]; LUC (luciferase)) [%] |
| --- | --- | --- | --- | --- | --- | --- | --- | --- |
| O=c1c(O)c(-c2ccc(O)cc2)oc2ccc(O)cc12 [3,6,4′-trihydroxyflavone] | 53 | 71 | 102 | 108 | 2–3 fold | 3 |  |  |
| COc1ccc2oc(-c3ccc(O)cc3)cc(=O)c2c1 [6-methoxy,4′-hydroxyflavone] | 27 | 49 | 129 | 167 |  |  |  |  |
| Oc1ccc(C2COc3cc(O)ccc3C2)cc1 (stereo not drawn) [7,4′-dihydroxyisoflavan] |  | 22 | 96 | 84 |  |  | 42 | -88 |
